# Results published in patent publication US8889874B2, “Imidazolone-chalcone derivatives as potential anticancer agent and process for the preparation thereof” (Council of Scientific and Industrial Research, priority 2010, dated 2014).
# Where two headings read alike, the source gives them in different places.
# Tests used:
# Type in all cases: cell-based, human
# Colon cancer cell lines = assay: NCI anticancer screen, SRB assay, panel summary; conditions: for GI50: Homo sapiens
# Experimental: (§1) Some of biological activity studies were carried out at the National Cancer Institute (NCI), Maryland, USA.
# (§2) The compounds were evaluated for anticancer activity against fifty three human cancer cells derived from nine cancer types (leukemia cell line, non-small-cell lung cell line, colon cell line, CNS cell line, melanoma cell line, ovarian cell line, prostate cell line, and breast cancer cell line) as shown in Table 1. For each compound, dose response curves for each cell line were measured at a minimum of five concentrations at 10 fold dilutions. A protocol of 48 h continuous drug exposure was used and a sulforhodamine B (SRB) protein assay was used to estimate cell viability or growth.
# [1] = tested on: Ovarian cancer cell lines; assay: NCI anticancer screen, SRB assay, panel summary; conditions: Homo sapiens
# Experimental: as §1, §2
# Breast cancer cell lines = assay: NCI anticancer screen, SRB assay, panel summary; conditions: Homo sapiens
# Experimental: as §1, §2
# [2] = tested on: Non-small cell lung cancer cell lines; assay: NCI anticancer screen, SRB assay, panel summary; conditions: Homo sapiens
# Experimental: as §1, §2
# [3] = tested on: Melanoma cancer cell lines; assay: NCI anticancer screen, SRB assay, panel summary; conditions: for GI50: Homo sapiens
# Experimental: as §1, §2
# [4] = tested on: Prostate cancer cell lines; assay: NCI anticancer screen, SRB assay, panel summary
# Experimental: as §1, §2
# [5] = tested on: Leukemia cancer cell lines; assay: NCI anticancer screen, SRB assay, panel summary; conditions: Homo sapiens
# Experimental: as §1, §2
# CNS cancer cell lines = assay: NCI anticancer screen, SRB assay, panel summary; conditions: for GI50: Homo sapiens
# Experimental: as §1, §2
# Renal cancer cell lines = assay: NCI anticancer screen, SRB assay, panel summary; conditions: Homo sapiens
# Experimental: as §1, §2
# TD-47D (breast) = assay: NCI anticancer screen, SRB assay, 48 h; conditions: Homo sapiens
# Experimental: as §1, §2
# SN12C (renal) = assay: NCI anticancer screen, SRB assay, 48 h; conditions: Homo sapiens, SN12C
# Experimental: as §1, §2
# SNB-75 (CNS) = assay: NCI anticancer screen, SRB assay, 48 h; conditions: Homo sapiens
# Experimental: as §1, §2
# SK-MEL-2 (melanoma) = assay: NCI anticancer screen, SRB assay, 48 h; conditions: Homo sapiens
# Experimental: as §1, §2
# MDA-MB-231/ATCC (breast) = assay: NCI anticancer screen, SRB assay, 48 h; conditions: Homo sapiens
# Experimental: as §1, §2
# [6] = tested on: NCI-H460 (non-small cell lung); assay: NCI anticancer screen, SRB assay, 48 h; conditions: Homo sapiens
# Experimental: as §1, §2
# ACHN (renal) = assay: NCI anticancer screen, SRB assay, 48 h; conditions: Homo sapiens
# Experimental: as §1, §2
# COLO 205 (colon) = assay: NCI anticancer screen, SRB assay, 48 h; conditions: Homo sapiens, COLO 205
# Experimental: as §1, §2
# LOX IMVI (melanoma) = assay: NCI anticancer screen, SRB assay, 48 h; conditions: Homo sapiens
# Experimental: as §1, §2
# HT29 (colon) = assay: NCI anticancer screen, SRB assay, 48 h; conditions: Homo sapiens
# Experimental: as §1, §2
# KM12 (colon) = assay: NCI anticancer screen, SRB assay, 48 h; conditions: Homo sapiens
# Experimental: as §1, §2
# HS 578T (breast) = assay: NCI anticancer screen, SRB assay, 48 h; conditions: Homo sapiens
# Experimental: as §1, §2
# HCC-2998 (colon) = assay: NCI anticancer screen, SRB assay, 48 h; conditions: Homo sapiens
# Experimental: as §1, §2
# PC-3 (prostate) = assay: NCI anticancer screen, SRB assay, 48 h; conditions: Homo sapiens
# Experimental: as §1, §2
# [7] = tested on: HOP-92 (non-small cell lung); assay: NCI anticancer screen, SRB assay, 48 h; conditions: Homo sapiens
# Experimental: as §1, §2
# OVCAR-3 (ovarian) = assay: NCI anticancer screen, SRB assay, 48 h; conditions: Homo sapiens
# Experimental: as §1, §2
# BT-549 (breast) = assay: NCI anticancer screen, SRB assay, 48 h; conditions: Homo sapiens
# Experimental: as §1, §2
# SK-MEL-28 (melanoma) = assay: NCI anticancer screen, SRB assay, 48 h; conditions: Homo sapiens
# Experimental: as §1, §2
# SF-539 (CNS) = assay: NCI anticancer screen, SRB assay, 48 h; conditions: Homo sapiens
# Experimental: as §1, §2
# A498 (renal) = assay: NCI anticancer screen, SRB assay, 48 h; conditions: Homo sapiens
# Experimental: as §1, §2
# [8] = tested on: NCI-H23 (non-small cell lung); assay: NCI anticancer screen, SRB assay, 48 h; conditions: Homo sapiens
# Experimental: as §1, §2
# SF-295 (CNS) = assay: NCI anticancer screen, SRB assay, 48 h; conditions: Homo sapiens
# Experimental: as §1, §2
# [9] = tested on: A549/ATCC (non-small cell lung); assay: NCI anticancer screen, SRB assay, 48 h; conditions: Homo sapiens
# Experimental: as §1, §2
# M14 (melanoma) = assay: NCI anticancer screen, SRB assay, 48 h; conditions: Homo sapiens
# Experimental: as §1, §2
# [10] = 48 h exposure, SRB, read-out: GI50
# [11] = read-out: pGI50 (-log of molar concentration causing 50% inhibition of net cell growth) (converted)
smiles,measurement,setting,value
"COc1cc(/C=C/C(=O)c2cccc(-n3cc(-c4ccccc4)[nH]c3=O)c2)ccc1O [3a, 1-3-[(E)-3-(4-hydroxy-3-methoxyphenyl)-2-propenoyl]phenyl-4-phenyl-2,3-dihydro-1H-2-imidazolone]",mean graph midpoint (MG_MID) of Log10 LC50,"Colon cancer cell lines; Colon panel, log of concentration leading to 50% net cell death",4.68
same,GI50,"Colon cancer cell lines; Colon panel, log of concentration in mol/L causing 50% inhibition of net cell growth, read-out: mean graph midpoint (MG_MID) of Log10 GI50 (converted)",2.14 µM
same,GI50,"Colon cancer cell lines; seven colon cancer cell lines, exposure at least 48 hrs, read-out: GI50, range over the panel",1.4 to 3.77 µM
same,GI50,"[1]; Ovarian panel, log of concentration in mol/L causing 50% inhibition of net cell growth, read-out: mean graph midpoint (MG_MID) of Log10 GI50 (converted)",3.24 µM
same,LC50,"[1]; Ovarian panel, log of concentration leading to 50% net cell death, read-out: mean graph midpoint (MG_MID) of Log10 LC50 (converted)",11.7 µM
same,GI50,"[1]; six ovarian cancer cell lines, exposure at least 48 hrs, read-out: GI50, range over the panel",2.04 to 5.19 µM
same,GI50,"Breast cancer cell lines; Breast panel, log of concentration in mol/L causing 50% inhibition of net cell growth, read-out: mean graph midpoint (MG_MID) of Log10 GI50 (converted)",2.82 µM
same,LC50,"Breast cancer cell lines; Breast panel, log of concentration leading to 50% net cell death, read-out: mean graph midpoint (MG_MID) of Log10 LC50 (converted)",53.7 µM
same,GI50,"Breast cancer cell lines; five breast cancer cell lines, exposure at least 48 hrs, read-out: GI50, range over the panel",1.55 to 4.16 µM
same,GI50,"[2]; Non-small cell lung panel, log of concentration in mol/L causing 50% inhibition of net cell growth, read-out: mean graph midpoint (MG_MID) of Log10 GI50 (converted)",2.57 µM
same,LC50,"[2]; Non-small cell lung panel, log of concentration leading to 50% net cell death, read-out: mean graph midpoint (MG_MID) of Log10 LC50 (converted)",41.7 µM
same,GI50,"[2]; nine non-small cell lung cancer cell lines, exposure at least 48 hrs, read-out: GI50, range over the panel",1.48 to 3.9 µM
same,GI50,"[3]; Melanoma panel, log of concentration in mol/L causing 50% inhibition of net cell growth, read-out: mean graph midpoint (MG_MID) of Log10 GI50 (converted)",2.57 µM
same,GI50,"[3]; nine melanoma cancer cell lines, exposure at least 48 hrs, read-out: GI50, range over the panel",1.59 to 6.81 µM
same,mean graph midpoint (MG_MID) of Log10 LC50,"[3]; Melanoma panel, log of concentration leading to 50% net cell death",4.06
same,GI50,"[4]; Homo sapiens, log of concentration in mol/L causing 50% inhibition of net cell growth, read-out: mean graph midpoint (MG_MID) of Log10 GI50 (converted)",2.51 µM
same,LC50,"[4]; Homo sapiens, log of concentration leading to 50% net cell death, read-out: mean graph midpoint (MG_MID) of Log10 LC50 (converted)",≥ 100 µM
same,mean graph midpoint (MG_MID) of Log10 TGI,[4]; log of concentration resulting in total inhibition of net cell growth,5.13
same,GI50,"[5]; Leukemia panel, log of concentration in mol/L causing 50% inhibition of net cell growth, read-out: mean graph midpoint (MG_MID) of Log10 GI50 (converted)",1.86 µM
same,LC50,"[5]; Leukemia panel, log of concentration leading to 50% net cell death, read-out: mean graph midpoint (MG_MID) of Log10 LC50 (converted)",66.1 µM
same,GI50,"[5]; two leukemia cancer cell lines (RPMI-8226 and K-562), exposure at least 48 hrs, read-out: GI50, range over the panel",1.67 to 2.04 µM
same,mean graph midpoint (MG_MID) of Log10 LC50,"CNS cancer cell lines; CNS panel, log of concentration leading to 50% net cell death",4.62
same,GI50,"CNS cancer cell lines; CNS panel, log of concentration in mol/L causing 50% inhibition of net cell growth, read-out: mean graph midpoint (MG_MID) of Log10 GI50 (converted)",2.57 µM
same,GI50,"CNS cancer cell lines; six CNS cancer cell lines, exposure at least 48 hrs, read-out: GI50, range over the panel",1.91 to 3.9 µM
same,GI50,"Renal cancer cell lines; Renal panel, log of concentration in mol/L causing 50% inhibition of net cell growth, read-out: mean graph midpoint (MG_MID) of Log10 GI50 (converted)",2.4 µM
same,LC50,"Renal cancer cell lines; Renal panel, log of concentration leading to 50% net cell death, read-out: mean graph midpoint (MG_MID) of Log10 LC50 (converted)",34.7 µM
same,GI50,"Renal cancer cell lines; eight renal cancer cell lines, exposure at least 48 hrs, read-out: GI50, range over the panel",1.35 to 5.29 µM
same,GI50,TD-47D (breast); [10],2.7 µM
same,GI50,TD-47D (breast); [11],2.69 µM
same,GI50,"SN12C (renal); SN 12C, read-out: pGI50 (-log of molar concentration causing 50% inhibition of net cell growth) (converted)",3.31 µM
same,GI50,SN12C (renal); [10],3.31 µM
same,GI50,SNB-75 (CNS); [10],3.9 µM
same,GI50,SNB-75 (CNS); [11],3.89 µM
same,GI50,SK-MEL-2 (melanoma); [10],3.65 µM
same,GI50,SK-MEL-2 (melanoma); [11],3.63 µM
same,GI50,MDA-MB-231/ATCC (breast); [10],3.36 µM
same,GI50,MDA-MB-231/ATCC (breast); [11],3.39 µM
same,GI50,[6]; [10],1.95 µM
same,GI50,[6]; [11],1.95 µM
same,GI50,ACHN (renal); [10],2.5 µM
same,GI50,ACHN (renal); [11],2.51 µM
same,GI50,"COLO 205 (colon); COLO205, read-out: pGI50 (-log of molar concentration causing 50% inhibition of net cell growth) (converted)",2.19 µM
same,GI50,COLO 205 (colon); [10],2.21 µM
same,GI50,LOX IMVI (melanoma); [10],1.88 µM
same,GI50,LOX IMVI (melanoma); [11],1.86 µM
same,GI50,"HT29 (colon); HT-29, 48 h exposure, SRB, read-out: GI50",3.77 µM
same,GI50,"HT29 (colon); HT-29, read-out: pGI50 (-log of molar concentration causing 50% inhibition of net cell growth) (converted)",3.8 µM
same,GI50,KM12 (colon); [10],1.61 µM
same,GI50,KM12 (colon); [11],1.62 µM
same,GI50,HS 578T (breast); [10],4.16 µM
same,GI50,HS 578T (breast); [11],4.17 µM
same,GI50,HCC-2998 (colon); [10],1.51 µM
same,GI50,HCC-2998 (colon); [11],1.51 µM
same,GI50,"PC-3 (prostate); PC-3, read-out: pGI50 (-log of molar concentration causing 50% inhibition of net cell growth) (converted)",2.51 µM
same,GI50,"PC-3 (prostate); one prostate cancer cell line (PC-3), exposure at least 48 hrs, read-out: GI50",2.52 µM
same,GI50,[7]; [10],2.27 µM
same,GI50,[7]; [11],2.29 µM
same,GI50,OVCAR-3 (ovarian); [10],2.29 µM
same,GI50,OVCAR-3 (ovarian); [11],2.29 µM
same,GI50,BT-549 (breast); [10],2.78 µM
same,GI50,BT-549 (breast); [11],2.75 µM
same,GI50,SK-MEL-28 (melanoma); [10],1.85 µM
same,GI50,SK-MEL-28 (melanoma); [11],1.86 µM
same,GI50,SF-539 (CNS); [10],1.91 µM
same,GI50,SF-539 (CNS); [11],1.91 µM
same,GI50,A498 (renal); [10],1.68 µM
same,GI50,A498 (renal); [11],1.7 µM
same,GI50,[8]; [10],2.02 µM
same,GI50,[8]; [11],2.04 µM
same,GI50,SF-295 (CNS); [10],3.04 µM
same,GI50,SF-295 (CNS); [11],3.02 µM
same,GI50,[9]; [10],3.85 µM
same,GI50,[9]; [11],3.89 µM
same,GI50,M14 (melanoma); [10],2.61 µM
same,GI50,M14 (melanoma); [11],2.63 µM
